Measurements reported in patent US9248217B2, “Nanoparticle coating of surfaces” (Nanocopocia, LLC, priority 2006, dated 2016).

How the values were obtained:
[1] = SEM imaging of drug particles on hydrogel; format: physicochemical; conditions: SEM at 20,000x magnification
Method: For initial feasibility spray examples, griseofulvin (0.09023 g), a poorly water soluble antifungal agent, was dissolved in a mixture of ethanol (9 ml) and acetone (6 ml). A hydrogel sample, approximately 5 mm in largest diameter, removed from a borate buffer solution and placed on a metallic spray platform beneath the ElectroNanospray device's dual capillary spray head. The solution was sprayed in the cone jet mode at 4.17 kV at 5 μl/min and a distance of 15.6 mm from the hydrogel. Spray time was 20 minutes. The surface pattern seen in the SEM image shown in FIGS. 39A and 39B show a uniform, closely packed surface of approximately 200 nm particles at 20,000× magnification.

[2] = HPLC retention time of eluted peptide before and after ElectroNanospray (structural integrity); format: physicochemical; conditions: sprayed in aqueous solution onto stents and stainless steel plates
Method: General HPLC methods to quantify dexamethasone (DXM) and three peptides (luteinizing hormone releasing hormone (human; LHRH), angiotensin I, and insulin chain B) were developed using an HP 1090 system equipped with a narrowbore column (Zorbax SB C-18, 2.1 mm i.d.×150 mm, 3.5 μm) and UV detector. Data integration and processing were performed with Agilent ChemStation software (Rev. A.08.03). Peak areas were obtained by subtracting the baseline (from a “blank” injection of the sample matrix) from the experimental chromatogram. DXM was analyzed with the following method: 20/80 to 100/0 to 20/80 acetonitrile/water in 3 min and 3.01 min at 0.6 mL/min, end run at 6 min; 65° C.; 10 μL injection volume. DXM, which was detected at 243 nm, eluted at 2.27 min. The calibration curve for DXM (obtained from Alexis Biochemicals) generated with seven standard concentrations ranging from 0.5 to 30 μg/ml in acetonitrile was adequately linear (R^2=0.9999) and the limit of quantification (LOQ) was 0.5 μg/ml. The peptides (all obtained from Sigma-Aldrich) were analyzed with the following method: 20/80 to 50/50 to 20/80 acetonitrile/water buffered with 0.1% (v/v) perchloric acid in 5 min and 5.01 min at 0.4 mL/min, end run at 9 min; 65° C.; 10 μL injection volume; 210 nm detection wavelength. The retention of the peptides was measured before and after the ElectroNanospray process described earlier. LHRH eluted at 2.61 min, angiotensin I eluted at 3.54 min, and insulin B chain eluted at 4.71 min. Calibration curves for the peptides were obtained using five standard concentrations ranging from 1.25 to 50 μg/ml in a solution of 10 mM perchloric acid in water. The LOD for LHRH, angiotensin I and insulin chain B were 0.19, 0.25 and 0.34 μg/ml, respectively. System suitability and injection reproducibility tests were satisfactory.
We identified and sourced three readily available peptides of varying chain length, LHRH, angiotensin I, and insulin B chain. These were sprayed in aqueous solution onto both stents and stainless steel plates. […]

particle size on hydrogel surface [1] | Compound | HPLC retention time after spraying compared to before spraying [2]
approximately 200 nm | COC1=CC(=O)C[C@@H](C)[C@]12Oc1c(Cl)c(OC)cc(OC)c1C2=O [griseofulvin] | –
– | Luteinizing hormone releasing hormone [LHRH] | unchanged
– | angiotensin I (DRVYIHPFHL; Angiotensin-1; UniProt P01019 25-34, looked up) [model peptide obtained from Sigma-Aldrich] | unchanged
– | insulin B chain | unchanged
